Entries after “also recorded” stand apart in the source; their conditions may differ. Read-outs that look alike come from different tables or passages of the source.
Columns and labels:
B16 cells [1] = assay: Proliferation of B16 cells by MTT assay; type: cell-based, murine
B16 cells [2] = assay: Pigmentation of cultured B16 cells; type: cell-based, murine; conditions: B16 cells treated for 2 passages, 10 μM
[3] = test system: Axin2, Si/Gp100, Kit and other melanocytic genes; assay: Quantitative PCR of endogenous gene targets in B16 melanoma cells; type: cell-based, murine
Procedure: Cells were cultured for approximately 72 hours until they reached 80-90% confluency. RNA was purified using the RNeasy kit using the manufacturer's protocol (Qiagen; Maryland, MD). cDNA was synthesized using Superscript Reverse Transcriptase (Invitrogen; Grand Island, N.Y.). […] Quantitative PCR results presented in the manuscript are representative of experiments performed on a minimum of three biologic replicates.

Axin2 promoter = assay: Secondary screen, firefly luciferase under the Axin2 promoter in HEK293T cells; type: cell-based; conditions: alone and with WNT3A conditioned media
[4] = test system: human melanoma xenografts; conditions: mouse model, Namkoong et al. 2007; cited from earlier work
B16 melanoma cells = assay: B16 footpad tumor inoculation, tumor size and metastasis in C57BL/6 mice; type: in vivo
Procedure: Footpad injections of transduced B16 melanoma cells and measurement of popliteal lymph node and lung metastasis was performed as previously described (Murakami et al., Cancer Res. 62:7328 (2002), which is hereby incorporated by reference in its entirety). […] Fumagalli et al., Exp. Neurol. 198:114 (2006), which are hereby incorporated by reference in their entirety). […] All animal studies were performed using IACUC protocols approved by institutional review boards.

[5] = test system: Wnt/β-catenin signaling (beta-catenin activated reporter, BAR); assay: High throughput small molecule screen, Wnt/β-catenin reporter in RKO cells; type: cell-based, human
[6] = test system: Wnt/β-catenin signaling (beta-catenin activated reporter, BAR); assay: High throughput small molecule screen, beta-catenin activated reporter (BAR) in HT22 cells; type: cell-based, mouse
Procedure: Compounds were dissolved in dimethylsulphoxide (DMSO). For the primary screen, performed in duplicate, HT22 cells stably expressing the beta-catenin activated reporter (BAR) were cultured in growth medium (DMEM/10% FBS/1% antibiotic). 3000 cells per well were transferred to 384-well clear bottom plates (Nalgene Nunc; Rochester, N.Y.) in 30 μL of growth medium. The following day, […] of compound and 10 μL of either growth media or WNT3A conditioned media (E.C.50 dose) was transferred to the cells. The next day each well was imaged using transmitted light with the ImageXpress Micro (Molecular devices; Sunnyvale, Calif.) followed by the addition of 10 μL of Steady-Glo (Promega; Madison, Wis.) as per the manufacture's instructions, and luminescence measurement on an EnVision Multilabel plate reader (PerkinElmer; Waltham, Mass.). Viability was scored by analyzing the ImageXpress images. As described in detail in Seiler et al. (Seiler et al., Nucleic Acids Res. 36:D351 (2008), which is hereby incorporated by reference in its entirety), each compound well received an algebraically signed Z-score corresponding to the number of standard deviations it fell above or below the mean of a well-defined mock-treatment distribution of DMSO controls. Z-score normalized data from the growth media stimulus group were sorted by average percent change. The fold-increase over the background of DMSO controls for each treatment was also calculated. Top compounds with the greatest percent change of activity with the growth media were then resorted based on the percent change with the WNT3A stimulus.
These compounds represent FDA approved compounds and drugs or known bioactive molecules. RKO (human colorectal carcinoma red line) and HT22 (mouse hyppocampal line) cell lines were screened. The lines were tested without a stimulus, in presence of an E.C.50 dose of Wnt 3A condition media and in presence of a subthreshold dose of LiCl.

nuclear β-catenin = assay: Immunofluorescent staining of β-catenin in B16 cells; type: cell-based, murine; conditions: 10 mM lithium chloride or BIO, versus sodium chloride or DMSO
Procedure: A polyclonal rabbit anti-β-catenin antibody was used for detection of β-catenin (1:1000 dilution for immunoblot, 1:200 dilution for immunohistochemistry). Cells were grown on 18 mm glass coverslips, for 48-72 hours, fixed using 4% paraformaldahyde, permeabilized using 0.25% Triton X-100, and then blocked with 10% goat serum. Goat anti-rabbit Alexa Fluor-568 antibody (Molecular Probes; Eugene, Oreg.) was diluted 1:1000. Cells were counterstained for nucleic acid with DAPI (Molecular Probes; Eugene, Oreg.). Paraffin-embedded nevus sections were stained using an antibody dilution of 1:200. Cellular lysates were obtained by lysing cells on plate with a 0.1% NP-40 based buffer and analyzed by NuPage 4-12% gradient gels (Invitrogen; Grand Island, N.Y.). The WNT5A antibody was obtained from Cell Signaling Technologies (Danvers, Mass.).

[7] = Suitability for murine therapeutic trials (toxicity, serum levels); type: in vivo; conditions: mice
[8] = RKO cells, in presence of a subthreshold dose of LiCl
[9] = RKO cells, in presence of an E.C.50 dose of Wnt 3A condition media
[10] = HT22 cells, in presence of a subthreshold dose of LiCl
[11] = HT22 cells, in presence of an E.C.50 dose of Wnt 3A condition media
[12] = 10 mM lithium chloride or 1 μM BIO

| Compound | RKO Li [5, 8] | RKO Wnt3a [5, 9] | HT22 Li [6, 10] | HT22 Wnt3a [6, 11] | RKO Li [5] | RKO Wnt3a [5] | HT22 Li [6] | HT22 Wnt3a [6] | further results |
| --- | --- | --- | --- | --- | --- | --- | --- | --- | --- |
| Nc1nc2ccc(OC(F)(F)F)cc2s1 [riluzole] | – | – | – | – | – | – | – | – | Proliferation by MTT assay (B16 cells [1]; three days, 10 μM riluzole): decreased proliferation; Pigmentation (B16 cells [2]): increased pigmentation; Expression of melanocytic genes ([3]; 72 hours, 10 mM lithium chloride or 10 μM riluzole): elevation in levels of melastatin (Trpm1) and Kit transcripts; also recorded: upregulation of melanocytic genes; Activation of firefly luciferase under the Axin2 promoter (Axin2 promoter): both on its own as well as in synergy with WNT3A conditioned media; Proliferation / growth of human melanoma xenografts [4]: could decrease proliferation of human melanoma xenografts; Sentinel popliteal lymph node metastasis (Firefly luciferase) (B16 melanoma cells; 9 mice per group, versus control mice with no treatment): significantly decreased metastasis; Tumor size (B16 melanoma cells; after 21 days, treatment initiated one week post-injection, oral in drinking water): No significant difference; Lung metastasis, mice affected (B16 melanoma cells; versus 3 out of 9 control mice): 0 out of 9 |
| azathioprine | 1.06 | 1.30 | 0.76 | 2.67 | – | – | – | – | – |
| CCCCCCCCCCCCCCCCCC(=O)O[C@H](CC(=O)[O-])C[N+](C)(C)C [stearoylcarnitine] | 0.92 | 0.10 | 3.21 | 0.38 | – | – | – | – | – |
| O=C1Nc2cc(Br)ccc2/C1=C1/Nc2ccccc2/C1=N\O [BIO, 6-bromoindirubin-3′-oxime] | – | – | – | – | – | – | – | – | Proliferation by MTT assay (B16 cells [1]; [12]): decreased proliferation; Axin2 levels by quantitative PCR [3, 12]: increased Axin2 levels; Nuclear β-catenin by immunofluorescent staining (nuclear β-catenin): increased nuclear β-catenin; Obstacles to murine therapeutic trials [7]: several obstacles relating to both toxicity |
| Cl.Cl.FC(F)(F)c1ccc2c(c1)N(CCCN1CCN(CCCl)CC1)c1ccccc1S2 [Fluphenazine-N-2-chloroethane, Dihydrochloride] | – | – | – | – | 4.27 | 0.08 | 1.32 | 0.13 | – |
| Cc1[nH]c(=O)c(C#N)cc1-c1ccncc1 [milrinone] | – | – | – | – | 1.00 | 1.20 | 0.98 | 1.75 | – |

From US20110251144A1, “MOLECULAR MODULATORS OF THE WNT/BETA-CATENIN PATHWAY” (MASSACHUSETTS INSTITUTE OF TECHNOLOGY, priority 2008, published 2011)
